The data set can be described thus: Solubility of methyleneadamantane in organic compound. Format: physicochemical. To be noted: supernatant analysed by gas chromatography. The protocol:
To a predetermined amount of an organic solvent was added 2-methyleneadamantane in such an amount that it remains in the solvent after dissolution. After stirring the mixture while keeping the temperature at 0° C., the resulting mixture was allowed to stand. A supernatant was collected therefrom and its composition was analyzed by gas chromatography.
The solubility of 2-methyleneadamantane and the amount of 2-methyleneadamantane in the reaction product were measured by gas chromatography analysis described below. • Gas chromatography analyzer: “GC-14B”, product of Shimadzu Corporation • Column: “TC-1”, product of Tokyo Chemical Industry (inner diameter: 0.25 mm, thickness of filler: 0.25 μm, length: 60 m) • Feed port temperature: 150° C. • Detector: FID • Detector temperature: 280° C. • Conditions of column oven: The column oven was retained at 100° C. for 3 minutes, heated to 180° C. at 10° C./min, retained at 180° C. for 5 minutes, heated to 280° C. at 10° C./min, and then retained at 280° C. for 5 minutes.

Experimental findings from patent US20080051597A1, “Process for Producing 2-Methyladamantan-2-Yl (Meth)Acrylate and 2-Methyladamantan-2-Yl (Meth)Acrylate” (Mitsubishi Chemical Corporation, priority 2004, published 2008) are described below.

Consider `C=C1C2CC3CC(C2)CC1C3` [methyleneadamantane, 2-methyleneadamantane], for which the “solubility of methyleneadamantane in 100 g of n-undecane at 0° C.” value is reported as 101 g.
